Measured values: US6486143B2, “6-amino- or 6-hydrazino-sulphonyl-3-quinolynyl-phosphonic acid compounds” (Les Laboratoires Servier, priority 2000, dated 2002)

- melting point: > 260 °C
SMILES: O=c1[nH]c2cc(C(F)(F)F)c(S(=O)(=O)N3CCCCC3)cc2cc1P(=O)(O)O [Example 32, 2-Oxo-6-(1-piperidylsulphonyl)-7-(trifluoromethyl)-1,2-dihydro-3-quinolylphosphonic Acid]
